In US20100227872A1, “PYRAZINE DERIVATIVES” (priority 2007, published 2010):

Legend:
Format in all cases: cell-based
Human Nav1.8 = target: T1, Human Nav1.8 (Homo sapiens, UniProt Q9Y5Y9); test: VIPR Assay for Nav1.8 Compounds (FRET membrane potential, deltamethrin opener); conditions: HEK293 cells expressing Human Nav1.8; deltamethrin as opener; average of replicates
T1 construct: expressed in transfected cells; host or cells: HEK293 (selected with Geneticine)

[1] = test system: tetrodotoxin-sensitive voltage-gated sodium channels including NaV1.2, NaV1.3 and NaV1.7; test: TTX-S Assay in SHSY-5Y cell line (VIPR, veratridine opener); conditions: read-out: TTX-S IC50, veratridine 50 μM as opener, average of replicates
Human Nav1.5 = target: T2, Human Nav1.5 (Homo sapiens, UniProt Q14524); test: Nav1.5 Assay (VIPR, as Nav1.8 assay); conditions: HEK293 cells expressing Human Nav1.5; average of replicates
T2 construct: expressed in transfected cells; host or cells: HEK293
T2 sequence (Q14524 whole entry): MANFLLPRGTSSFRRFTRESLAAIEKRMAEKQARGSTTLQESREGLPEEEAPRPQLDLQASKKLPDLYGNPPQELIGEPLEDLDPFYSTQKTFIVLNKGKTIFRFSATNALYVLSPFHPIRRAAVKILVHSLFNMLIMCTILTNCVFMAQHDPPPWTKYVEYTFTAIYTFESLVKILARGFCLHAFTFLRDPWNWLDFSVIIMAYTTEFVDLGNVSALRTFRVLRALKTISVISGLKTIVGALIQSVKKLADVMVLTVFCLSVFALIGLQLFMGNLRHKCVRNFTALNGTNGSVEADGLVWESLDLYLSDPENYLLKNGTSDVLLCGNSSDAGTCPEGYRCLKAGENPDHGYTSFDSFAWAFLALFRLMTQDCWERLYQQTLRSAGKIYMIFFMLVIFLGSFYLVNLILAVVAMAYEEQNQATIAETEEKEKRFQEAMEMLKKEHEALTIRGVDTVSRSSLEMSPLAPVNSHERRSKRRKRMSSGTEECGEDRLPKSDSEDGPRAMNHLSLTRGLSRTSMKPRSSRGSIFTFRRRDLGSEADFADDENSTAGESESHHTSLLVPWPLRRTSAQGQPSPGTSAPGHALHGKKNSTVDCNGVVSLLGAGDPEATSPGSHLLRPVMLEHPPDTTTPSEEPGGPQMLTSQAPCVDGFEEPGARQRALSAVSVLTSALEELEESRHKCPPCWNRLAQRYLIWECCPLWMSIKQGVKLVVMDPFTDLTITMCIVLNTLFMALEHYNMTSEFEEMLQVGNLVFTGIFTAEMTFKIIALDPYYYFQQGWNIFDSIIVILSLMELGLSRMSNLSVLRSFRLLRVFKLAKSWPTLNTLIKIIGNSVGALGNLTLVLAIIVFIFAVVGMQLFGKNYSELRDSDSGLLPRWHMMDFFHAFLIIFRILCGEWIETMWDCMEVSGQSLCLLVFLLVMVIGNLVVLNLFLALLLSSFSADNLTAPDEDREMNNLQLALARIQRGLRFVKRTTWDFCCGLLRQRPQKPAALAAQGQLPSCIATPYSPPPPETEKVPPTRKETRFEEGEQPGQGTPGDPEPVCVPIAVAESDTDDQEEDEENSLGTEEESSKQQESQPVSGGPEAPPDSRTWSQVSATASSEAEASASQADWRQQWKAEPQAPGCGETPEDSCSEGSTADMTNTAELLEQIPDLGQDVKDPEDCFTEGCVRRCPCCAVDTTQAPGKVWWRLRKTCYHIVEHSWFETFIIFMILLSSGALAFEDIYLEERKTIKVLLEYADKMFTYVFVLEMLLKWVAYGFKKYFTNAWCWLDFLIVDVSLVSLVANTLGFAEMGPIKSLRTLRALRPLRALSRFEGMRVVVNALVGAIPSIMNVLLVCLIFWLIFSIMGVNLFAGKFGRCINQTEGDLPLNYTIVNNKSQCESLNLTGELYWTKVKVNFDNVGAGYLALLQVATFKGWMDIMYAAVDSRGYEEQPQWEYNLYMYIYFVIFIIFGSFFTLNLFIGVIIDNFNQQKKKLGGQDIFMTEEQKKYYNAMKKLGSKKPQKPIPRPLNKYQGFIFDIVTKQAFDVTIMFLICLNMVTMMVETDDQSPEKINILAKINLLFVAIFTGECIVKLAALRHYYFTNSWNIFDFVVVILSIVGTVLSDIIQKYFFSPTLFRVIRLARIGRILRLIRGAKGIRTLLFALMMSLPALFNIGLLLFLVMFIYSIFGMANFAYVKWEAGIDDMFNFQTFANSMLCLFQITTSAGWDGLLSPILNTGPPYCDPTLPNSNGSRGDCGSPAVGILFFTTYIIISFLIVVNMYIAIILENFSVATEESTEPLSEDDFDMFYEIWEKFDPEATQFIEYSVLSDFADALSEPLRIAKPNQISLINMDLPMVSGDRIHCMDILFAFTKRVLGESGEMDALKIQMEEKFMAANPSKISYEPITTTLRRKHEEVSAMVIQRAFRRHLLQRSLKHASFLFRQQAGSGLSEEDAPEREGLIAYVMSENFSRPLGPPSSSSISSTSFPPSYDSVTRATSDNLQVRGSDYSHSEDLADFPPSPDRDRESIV
Protocol: The Nav1.5 assay is performed in HEK293 cells expressing Human Nav1.5 in the same way as the Nav1.8 assay described above.

T1 sequence (Q9Y5Y9 whole entry): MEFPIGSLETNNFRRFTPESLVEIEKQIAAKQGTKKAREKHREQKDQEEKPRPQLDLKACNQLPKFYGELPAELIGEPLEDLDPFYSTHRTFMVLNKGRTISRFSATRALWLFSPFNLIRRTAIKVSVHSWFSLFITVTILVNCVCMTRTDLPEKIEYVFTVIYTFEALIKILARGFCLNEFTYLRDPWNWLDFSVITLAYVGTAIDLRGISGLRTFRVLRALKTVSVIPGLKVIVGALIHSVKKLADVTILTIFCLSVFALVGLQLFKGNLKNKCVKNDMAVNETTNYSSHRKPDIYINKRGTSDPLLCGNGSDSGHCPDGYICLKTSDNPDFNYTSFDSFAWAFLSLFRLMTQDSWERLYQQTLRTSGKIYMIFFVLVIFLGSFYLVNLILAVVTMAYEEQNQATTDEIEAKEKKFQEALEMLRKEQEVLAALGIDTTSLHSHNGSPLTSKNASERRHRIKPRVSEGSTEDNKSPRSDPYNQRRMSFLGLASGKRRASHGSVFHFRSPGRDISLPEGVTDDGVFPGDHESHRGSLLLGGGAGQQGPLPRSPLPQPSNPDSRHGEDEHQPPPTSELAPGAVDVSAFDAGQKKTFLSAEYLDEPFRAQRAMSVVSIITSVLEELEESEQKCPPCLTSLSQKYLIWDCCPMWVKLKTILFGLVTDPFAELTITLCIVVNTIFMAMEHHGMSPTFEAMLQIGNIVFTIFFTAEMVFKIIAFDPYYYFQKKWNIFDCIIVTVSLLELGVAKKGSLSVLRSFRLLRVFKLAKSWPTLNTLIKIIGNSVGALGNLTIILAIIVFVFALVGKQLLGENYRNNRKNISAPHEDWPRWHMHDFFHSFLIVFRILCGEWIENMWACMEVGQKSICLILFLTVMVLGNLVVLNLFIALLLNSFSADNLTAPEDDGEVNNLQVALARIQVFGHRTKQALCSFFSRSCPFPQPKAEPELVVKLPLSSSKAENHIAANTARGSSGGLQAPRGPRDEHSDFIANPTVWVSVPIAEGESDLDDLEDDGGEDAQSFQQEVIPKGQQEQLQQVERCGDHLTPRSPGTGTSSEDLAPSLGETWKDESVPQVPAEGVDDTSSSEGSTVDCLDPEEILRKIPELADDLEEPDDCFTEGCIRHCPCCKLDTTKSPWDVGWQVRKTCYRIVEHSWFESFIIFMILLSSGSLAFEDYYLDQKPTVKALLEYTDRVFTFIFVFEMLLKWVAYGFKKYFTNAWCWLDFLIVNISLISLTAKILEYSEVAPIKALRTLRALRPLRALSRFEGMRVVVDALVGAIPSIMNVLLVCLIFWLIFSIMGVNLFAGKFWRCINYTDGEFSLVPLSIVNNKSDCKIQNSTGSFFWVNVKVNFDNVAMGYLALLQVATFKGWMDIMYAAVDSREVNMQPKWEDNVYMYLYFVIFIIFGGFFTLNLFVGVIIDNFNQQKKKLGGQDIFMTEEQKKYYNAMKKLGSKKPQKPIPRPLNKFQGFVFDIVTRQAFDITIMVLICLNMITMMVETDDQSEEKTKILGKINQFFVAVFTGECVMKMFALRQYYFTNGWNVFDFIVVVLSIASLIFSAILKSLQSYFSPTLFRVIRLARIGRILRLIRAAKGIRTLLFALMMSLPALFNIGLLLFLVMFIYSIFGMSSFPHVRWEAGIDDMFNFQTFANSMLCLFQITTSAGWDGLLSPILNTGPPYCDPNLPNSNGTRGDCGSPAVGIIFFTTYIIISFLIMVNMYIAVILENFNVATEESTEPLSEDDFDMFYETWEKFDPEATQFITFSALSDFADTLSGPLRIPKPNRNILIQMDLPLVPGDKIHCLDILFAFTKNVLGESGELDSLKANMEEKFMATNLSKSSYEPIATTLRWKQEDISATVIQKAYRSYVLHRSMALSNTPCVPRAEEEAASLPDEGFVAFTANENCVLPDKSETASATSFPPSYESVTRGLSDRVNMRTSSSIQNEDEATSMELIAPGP

Question: What does the source list for `COCc1nocc1C(=O)Nc1cnc(-c2cc(Cl)ccc2OC(F)(F)F)c(N)n1` [Example 7]?
Answer: IC50 (Human Nav1.8): 4.6 µM; IC50 [1]: 17 µM; IC50 (Human Nav1.5): 21 µM

Question: With `Cc1nocc1C(=O)Nc1cnc(-c2cc(Cl)ccc2OC(F)(F)F)c(N)n1` [Example 3, N-{6-Amino-5-[5-chloro-2-(trifluoromethoxy)phenyl]pyrazin-2-yl}-3-methylisoxazole-4-carboxamide] as the compound, how does the IC50 (Human Nav1.8) read?
Answer: 4.3 µM

Question: What about the IC50 [1] of the same compound?
Answer: 16 µM

Question: And the IC50 (Human Nav1.5)?
Answer: > 32 µM

Question: `Cn1nccc1C(=O)Nc1cnc(-c2cc(F)ccc2OC(F)(F)F)c(N)n1` [Example 15] was tested. Which IC50 (Human Nav1.8) did it give?
Answer: 16 µM

Question: What about the IC50 [1] of the same compound?
Answer: > 32 µM

Question: What about the IC50 (Human Nav1.5) of the same compound?
Answer: > 32 µM

Question: How did the IC50 (Human Nav1.8) turn out when `CCOc1ccc(OC(F)(F)F)c(-c2ncc(NC(=O)c3conc3C)nc2N)c1` [Example 17, N-(6-Amino-5-[5-ethoxy-2-{trifluoromethoxy)phenyl]pyrazin-2-yl}-3-methylisoxazole-4-carboxamide] was run?
Answer: 1.9 µM

Question: What about the IC50 (Human Nav1.5) of the same compound?
Answer: > 32 µM

Question: For `CC(C)n1nccc1C(=O)Nc1cnc(-c2ccccc2OC(F)(F)F)c(N)n1` [Example 5, N-{6-Amino-5-[2-(trifluoromethoxy)phenyl]pyrazin-2-v1}-1-isopropyl-1H-pyrazole-5-carboxamide], which IC50 (Human Nav1.8) is on record?
Answer: 19 µM

Question: And the IC50 [1]?
Answer: 29 µM

Question: And the IC50 (Human Nav1.5)?
Answer: > 32 µM

Question: How did the IC50 (Human Nav1.8) turn out when `COCc1nocc1C(=O)Nc1cnc(-c2cc(F)ccc2C(F)(F)F)c(N)n1` [Example 8, N-{6-Amino-5-[5-fluoro-2-(trifluoromethyl)phenyl]pyrazin-2-yl}-3-(methoxymethyl)isoxazole-4-carboxamide] was run?
Answer: 11 µM

Question: And the IC50 (Human Nav1.5)?
Answer: > 32 µM

Question: `Cc1nocc1C(=O)Nc1cnc(-c2ccccc2OC(F)(F)F)c(N)n1` [Example 1, N-{6-Amino-5-[2-(trifluoromethoxy)phenyl]pyrazin-2-yl}-3-methylisoxazole-4-carboxamide] was tested. Which IC50 (Human Nav1.8) did it give?
Answer: 3.6 µM

Question: And the IC50 [1]?
Answer: 30 µM

Question: What about the IC50 (Human Nav1.5) of the same compound?
Answer: > 32 µM

Question: With `CCn1nccc1C(=O)Nc1cnc(-c2ccccc2OC(F)(F)F)c(N)n1` [Example 4, N-{6-Amino-5-[2-(trifluoromethoxy)phenyl]pyrazin-2-yl}-1-ethyl-1H-pyrazole-5-carboxamide] as the compound, how does the IC50 (Human Nav1.8) read?
Answer: 27 µM

Question: What about the IC50 [1] of the same compound?
Answer: > 32 µM

Question: What about the IC50 (Human Nav1.5) of the same compound?
Answer: > 32 µM

Question: `Nc1nc(NC(=O)c2conc2C(F)(F)F)cnc1-c1ccccc1OC(F)(F)F` [Example 12, N-{6-Amino-5-[2-(trifluoromethoxy)phenyl]pyrazin-2-yl}-3-(trifluoromethyl)isoxazole-4-carboxamide] was tested. Which IC50 (Human Nav1.8) did it give?
Answer: 2.8 µM

Question: And the IC50 [1]?
Answer: 21 µM

Question: And the IC50 (Human Nav1.5)?
Answer: > 32 µM

Question: How did the IC50 (Human Nav1.8) turn out when `Nc1nc(NC(=O)c2conc2C(F)(F)F)cnc1-c1cc(F)ccc1C(F)(F)F` [Example 14, N-{6-Amino-5-[5-fluoro-2-(trifluoromethyl)phenyl]ovrazin-2-yl}-3-trifluoromethylisoxazole-4-carboxamide] was run?
Answer: 2.5 µM

Question: And the IC50 [1]?
Answer: 31 µM

Question: And the IC50 (Human Nav1.5)?
Answer: > 32 µM

Question: With `CCOc1ccc(OC(F)(F)F)c(-c2ncc(NC(=O)c3ccnn3C)nc2N)c1` [Example 16, N-{6-Amino-5-[5-ethoxy-2-(trifluoromethoxy)phenyl]pyrazin-2-yl}-1-methyl-1H-pyrazole-5-carboxamide] as the compound, how does the IC50 (Human Nav1.8) read?
Answer: 19 µM

Question: And the IC50 (Human Nav1.5)?
Answer: > 32 µM

Question: With `Cc1nocc1C(=O)Nc1cnc(-c2cc(F)ccc2C(F)(F)F)c(N)n1` [Example 10, N-{6-amino-5-[5-fluoro-2-(trifluoromethyl)phenyl]pyrazin-2-yl}-3-methylisoxazole-4-carboxamide] as the compound, how does the IC50 (Human Nav1.8) read?
Answer: 4.7 µM

Question: What about the IC50 [1] of the same compound?
Answer: > 32 µM

Question: And the IC50 (Human Nav1.5)?
Answer: > 32 µM

Question: `COCc1nocc1C(=O)Nc1cnc(-c2ccccc2OC(F)(F)F)c(N)n1` [Example 6, N-{6-Amino-5-[2-(trifluoromethoxy)phenyl]pyrazin-2-yl}-3-(methoxymethyl)isoxazole-4-carboxamide] was tested. Which IC50 (Human Nav1.8) did it give?
Answer: 20 µM

Question: And the IC50 [1]?
Answer: 19 µM

Question: What about the IC50 (Human Nav1.5) of the same compound?
Answer: > 32 µM

Question: How did the IC50 (Human Nav1.8) turn out when `COCc1oncc1C(=O)Nc1cnc(-c2ccccc2OC(F)(F)F)c(N)n1` [Example 9, N-{6-Amino-5-[2-(trifluoromethoxy)phenyl]pyrazin-2-yl}-5-(methoxymethyl)isoxazole-4-carboxamide] was run?
Answer: 20 µM

Question: What about the IC50 [1] of the same compound?
Answer: 30 µM

Question: And the IC50 (Human Nav1.5)?
Answer: > 32 µM

Question: For `Cc1nocc1C(=O)Nc1cnc(-c2ccccc2C(F)(F)F)c(N)n1` [Example 2, N-{6-Amino-5-[2-(trifluoromethyl)phenyl]pyrazin-2-yl}-3-methylisoxazole-4-carboxamide], which IC50 (Human Nav1.8) is on record?
Answer: 8.7 µM

Question: What about the IC50 [1] of the same compound?
Answer: > 32 µM

Question: What does the source list for `Cc1nocc1C(=O)Nc1cnc(-c2cc(F)ccc2OC(F)(F)F)c(N)n1` [Example 13, N-{6-Amino-5-[5-fluoro-2-(trifluoromethoxy)phenyl]pyrazin-2-yl}-3-methylisoxazole-4-carboxamide]?
Answer: IC50 (Human Nav1.8): 3.8 µM; IC50 [1]: > 32 µM; IC50 (Human Nav1.5): > 32 µM

Question: `Cn1nccc1C(=O)Nc1cnc(-c2cc(Cl)ccc2OC(F)(F)F)c(N)n1` [Example 11, N-{6-Amino-5-[5-chloro-2-(trifluoromethoxy)phenyl]pyrazin-2-yl}-methyl-1H-pyrazole-5-carboxamide] was tested. Which IC50 (Human Nav1.8) did it give?
Answer: 12 µM

Question: And the IC50 [1]?
Answer: > 32 µM

Question: And the IC50 (Human Nav1.5)?
Answer: > 32 µM
